Measured values as given in PubChem BioAssay AID179 (DTP/NCI, 2004).
Active and inactive are the calls of the source.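 How the source made its calls: active means compounds giving half or more protection of infected cells from virus-caused growth loss, again on retest; inactive means the rest.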 Where a SMILES comes first, the peptide text is derived from it. [ ]: non-standard residue; d: D form. Phe(4-Cl) = N[CH](Cc1ccc(Cl)cc1)C(=O)O; 2Nal = N[CH](Cc1ccc2ccccc2c1)C(=O)O; 3Pal = N[CH](Cc1cccnc1)C(=O)O

System: CEM cells HIV-1 protection, formazan growth assay
Assay: NCI AIDS Antiviral Assay
Details: for IC50: measured here: growth of uninfected CEM cells
Summary of the method: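 Soluble formazan readout of cell growth; CEM cells ± HIV-1; 5 drug concs. ≥50% protection → retest; ≥50% again = moderately active; reproducible 100% = confirmed active.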

Row | SMILES | EC50 [µM] | IC50 [µM] | outcome
1 | O=[N+]([O-])c1ccc(/C(Cl)=C/c2ccc(/C=C(\Cl)c3ccc([N+](=O)[O-])cc3[N+](=O)[O-])cc2)c([N+](=O)[O-])c1 | > 1.41 | > 1.41 | 
2 | CCOc1ccc(NC(=O)CC2SC(N)=NC2=O)cc1 (centres undefined) | > 447 | > 447 | 
3 | Cc1ccc2nc3c(Cl)c(C)c(=O)cc-3sc2c1 | > 13.5 | > 13.5 | 
4 | OCC1C2C=CC(O2)[C@H]1CO (some centres undefined) |  |  | inactive
5 | COc1ccc(C(C#N)NNC(=O)c2ccccc2O)cc1OC (centres undefined) | > 79.4 | 4.07 | 
6 | O=C(c1ccccc1)C1C(c2ccccc2)S(=O)C(c2ccccc2)CC1(O)c1ccccc1 (centres undefined) | > 66.1 | 13.5 | 
7 | CCNC(=O)OCc1cnc(C)c(O)c1COC(=O)NCC | > 200 | > 200 | 
8 | COc1ccccc1NC(=O)/C(=C/n1c(=S)[nH]c2ccccc21)C(C)=O | > 200 | > 200 | 
9 | C#CC1(O)CCC2C3CCC4=Cc5oncc5CC4(C)C3CCC21C (centres undefined) | > 200 | 39.8 | 
10 | CC1(C)COC(c2c(-c3ccccc3)noc2CS(=O)c2ccccc2)=N1 (centres undefined) | > 100 | 42.7 | 
11 | COC(=O)C1Cc2c([nH]c3ccccc23)C(C2CCCCC2)N1 (centres undefined) |  |  | inactive
12 | Cc1ccc(C)c(NC(=O)CCC(=O)CC(=O)C(C)(C)C)c1 |  |  | inactive
13 | COc1ccc(-c2sc(/N=C/c3cc(OC)c(OC)c(OC)c3)c(C#N)c2C)cc1OC | > 200 | 11.2 | 
14 | CCCCn1[nH]c(=O)ccc1=O | > 1480 | 1410 | 
15 | C/C(=N/NC(=S)N(C)CCc1ccccn1)c1cnccn1 | > 0.2 | 0.0178 | 
16 | Cc1cc(C)c(/C=C(\C(=C/c2c(C)cc(C)cc2C)[N+](=O)[O-])[N+](=O)[O-])c(C)c1 | > 100 | > 100 | 
17 | Nc1nc(N)c(CCCCc2ccccc2)c(/C=C/c2ccc([N+](=O)[O-])cc2)n1 |  |  | inactive
18 | C=CCC12CC(=O)CCC1c1ccc(OC)cc1C2=O (centres undefined) | > 251 | 141 | 
19 | CN/N=C(\C)C(CN(C)C)C(c1ccccc1)c1c(O)c2ccccc2oc1=O (centres undefined) | > 135 | 102 | 
20 | COc1ccc(/C=C2\N=C(C)OC2=O)cc1 | > 437 | > 437 | 
21 | Nc1ncc(N)c(N)n1 | > 200 | 132 | 

Row | SMILES | EC50 [µM] | IC50 [µM] | outcome
22 | COC(CN(C)C(=S)Nc1cccc2ccccc12)OC | > 200 | 79.4 | 
23 | C[C@H](NC(=O)OC1C2C=CC(O)C1CC2)c1ccccc1 (some centres undefined) | > 871 | 776 | 
24 | Nc1ccn(CC(=O)NCCCCO)c(=O)n1 | > 200 | > 200 | 
25 | CCSCN(C)c1nc(N(C)C)nc(N(C)C)n1 | > 200 | 8.51 | 
26 | Cc1ccc(/C=C2\CCCCC2=O)cc1 |  |  | inactive
27 | [N-]=[N+]=NCc1cccc(Nc2cc(=O)[nH]c(=O)[nH]2)c1 | 49 | > 200 | 
28 | CC1(C)CC2(C)CC1CC2NC(=O)CCN1CCOCC1 (centres undefined) | > 851 | 676 | 
29 | CC1(C)CC(=O)C(=CN2C(=O)CNC2=S)C(=O)C1 | > 200 | > 200 | 
30 | COC(=O)C(c1[nH]nc2ccccc12)C(C(=O)OC)c1[nH]nc2ccccc12 (centres undefined) |  |  | inactive
31 | CCCc1cc(=O)oc2c3c(c4c(c12)OC(C)(C)C=C4)O[C@@H](C)[C@H](C)C3=O | 4.9 | 97.7 | 
32 | O=C1[C@@H](c2ccc(Cl)cc2)[C@H]2CC=C[C@H]2N1O | > 355 | 61.7 | 
33 | COc1ccc(CNc2nc3ccccc3nc2C(=O)O)cc1 | > 200 | 34.7 | 
34 | C=CCC1(O)CC(n2cc(C)c(=O)[nH]c2=O)OC1CO[Si](C)(C)C(C)(C)C (centres undefined) | > 200 | 91.2 | 
35 | CN(C)c1ccc(/C=C2/NC(=S)NC2=O)cc1 | > 200 | 20 | 
36 | CC1(c2ccccc2)OC(=O)c2ccccc21 (centres undefined) | > 200 | > 100 | 
37 | C=CCN(CC=C)C(=O)Nc1ccc(C(=O)N/N=C/c2cccc(OC)c2OC)cc1 | 89.1 | 170 | 
38 | CC(=O)/C(C)=N/NC(=O)c1ccccc1O | > 4.79 | > 4.79 | 
39 | Cc1ccc2nc(-c3ccccc3Cl)[nH]c2c1 | 14.8 | 29.5 | 
40 | CC(=O)[C@H]1CCC2[C@@H]3CC=C4C[C@@H](OC5OC(COS(=O)(=O)O)C(O)C(O)C5O)CC[C@]4(C)C3CC[C@@]21C (some centres undefined) | > 38 | > 38 | 
41 | O=C1OCc2nc3c(c(-c4ccccc4C(F)(F)F)c21)C(=O)OC3 |  |  | inactive
42 | CC(C)(O)C(O)COc1c2c(cc3oc(=O)ccc13)OCO2 (centres undefined) | > 813 | 339 | 

Row | SMILES | EC50 [µM] | IC50 [µM] | outcome
43 | O=c1c2c3c(sc2nc2n1NC=NN2)CCCC3 | > 20 | 8.51 | 
44 | Cc1cc(C)c2ccc(N3CCNCC3)nc2n1 | > 174 | 70.8 | 
45 | NC(N)=NS(=O)(=O)c1ccc(Nc2c3ccccc3nc3c(C(=O)NNCCO)cccc23)cc1 | > 200 | 5.25 | 
46 | COc1cc(CC(=O)c2ccc3c(c2)OCO3)cc(OC)c1OC | > 204 | > 204 | 
47 | O=C1NC2(O)c3ccccc3C(=O)C2(O)N1c1ccccc1 (centres undefined) | > 851 | 692 | 
48 | C[C@H](NC(=O)CNC(=O)CCCCCC(=O)NCC(=O)N[C@@H](C)C(=O)OCc1ccccc1)C(=O)OCc1ccccc1 | > 200 | > 100 | 
49 | COc1ccc(C=C(C(=O)O)C(=O)O)cc1 | > 1120 | > 1120 | 
50 | Cc1cccc2ns[s+]c12 | > 18.6 | > 18.6 | 
51 | N#C/C(=C\c1cccc(C#N)c1)c1ccccc1 | > 31.6 | > 31.6 | 
52 | CC(=O)Nc1ccc(/C=C2\N=C(c3ccccc3)OC2=O)cc1 | > 12.3 | > 12.3 | 
53 | CS/C(C)=N/OC(=O)NCCCCNc1ccc(N=[N+]=[N-])cc1 | > 148 | 34.7 | 
54 | COC(=O)CNC(=O)Nc1cc(N2C(=O)ON3C2C(C)(C)N(O)C3(C)C)ccc1C (centres undefined) | > 200 | 170 | 
55 | COc1ccc(OC)c2[nH]c(Sc3c([N+](=O)[O-])ncn3C)nc12 | > 21.4 | 7.08 | 
56 | C(=C(c1ccccc1)c1ccccc1)=C(c1ccccc1)c1ccccc1 | > 28.8 | > 28.8 | 
57 | O=C(/C=C/c1ccc(Cl)cc1)NC1C=Nc2ccc([N+](=O)[O-])cc2NC1=O (centres undefined) | > 200 | > 200 | 
58 | N#CC12CC=C(c3ccccc3)N=C1NC(c1ccccc1)=CC2 (centres undefined) | > 200 | 23.4 | 
59 | N[C@@H](CCC(=O)NCP(=O)(O)O)C(=O)O | > 200 | > 200 | 
60 | CSC(Cc1ccc2c(c1)Sc1ccccc1O2)=[N+]1CCOCC1 | > 200 | 44.7 | 
61 | CC(C)=CCC[C@@H](C)C1=CC(=O)C(C)=C(O)C1=O | > 2 | 1.02 | 
62 | Cc1cc(Cl)ccc1N=C1NC(=O)C(CC(=O)Nc2ccc([N+](=O)[O-])cc2[N+](=O)[O-])S1 (centres undefined) | > 77.6 | 67.6 | 
63 | C[n+]1c(-c2ccc(/C=N/Nc3ccnc(N/N=C/c4ccc(-c5cn6ccccc6[n+]5C)cc4)n3)cc2)cn2ccccc21 | 4.68 | 9.77 | 

Row | SMILES | EC50 [µM] | IC50 [µM] | outcome
64 | O=[N+]([O-])c1ccc(CSc2c3ccccc3nc3ccccc23)cc1 | > 200 | 3.39 | 
65 | Cn1c(=O)c2c(ncn2CCNC(CO)C(O)c2ccc([N+](=O)[O-])cc2)n(C)c1=O (centres undefined) | > 200 | > 200 | 
66 | CC(=O)NC(Cc1ccc2ccccc2c1)C(=O)NC(Cc1ccc(Cl)cc1)C(=O)NC(Cc1cccnc1)C(=O)NC(CO)C(=O)NC(Cc1ccc(O)cc1)C(=O)NC(CCCN=C(N)N)C(=O)NC(CC(C)C)C(=O)NC(CCCN=C(N)N)C(=O)N1CCCC1C(=O)NC(C)C(N)=O (centres undefined) (Ac-[2Nal][Phe(4-Cl)][3Pal]SYRLRPA-NH2; configuration not given here) | > 61.7 | 15.1 | 
67 | CC(=O)NC(CC(C)C)C(=O)NC(CC(=O)O)C(=O)NC(CCCCN)C(=O)NC(C)C(=O)NC(CO)C(=O)NC(Cc1ccc(O)cc1)C(=O)NC(CO)C(=O)NC(C(=O)NC(CC(N)=O)C(=O)NC(Cc1cnc[nH]1)C(=O)NC(CC(C)C)C(N)=O)C(C)O (centres undefined) (Ac-LDKASYSTNHL-NH2; configuration not given here) | > 47.9 | > 47.9 | 
68 | Clc1nc2nc3ccccc3nc2nc1Cl | > 100 | 77.6 | 
69 | CC(C)(C)C(=O)OCOP(=O)(OCOC(=O)C(C)(C)C)OCC1OC(N2C=CC(N)NC2=O)CC1F (centres undefined) | 1.12 | 87.1 | 
70 | c1nc(SSc2ncnc3nc[nH]c23)c2[nH]cnc2n1 | > 20 | 0.457 | 
71 | CSc1nc2cc(Cl)ccc2c2c1C=NCCN2 | > 93.3 | 15.8 | 
72 | CN1CN(c2ccccc2)C2(CCN(CCc3cc4ccccc4o3)CC2)C1=O | > 200 | 8.13 | 
73 | O=C1CN(c2ccccc2)CC(=O)N2Cc3ccccc3CN12 | > 44.7 | > 44.7 | 
74 | NS(=O)(=O)c1ccc(NNc2c3ccccc3nc3ccccc23)cc1 | > 200 | 10.7 | 
75 | CC(C)CC(=O)NC(Nc1ccc(S(=O)(=O)Nc2ncccn2)cc1)(C(F)(F)F)C(F)(F)F | > 200 | > 200 | 
76 | O=C(O)CCc1cccc2c1oc1c(CCC(=O)O)cccc12 | > 794 | 191 | 
77 | O=C(N=C1N(c2ccccc2)C(=O)C(=O)N1c1ccccc1)c1ccccc1 | > 200 | 5.62 | 
78 | O=c1[nH]c2ncsc2c(=O)n1OS(=O)(=O)c1ccccc1 | > 200 | 12.9 | 
79 | C[C@@H]1c2ccc3c(c2C2(O)C[C@H]4CCC1N2C4)CC1[C@H]3C[C@@H](O)C2C[C@@H](O)CC[C@@]21C (some centres undefined) | > 30.9 | > 30.9 | 
80 | O=c1[nH]c(=O)n(C2CC(O)C(CO)O2)cc1NN=NCCc1ccccc1 (centres undefined) | > 200 | > 200 | 
81 | O=c1nc(/C=C/c2ccccc2Cl)cc2n1CCN2CCO |  |  | inactive
82 | CCN(CC)c1c(C)nnc2c(-c3ccccc3)cnn12 | > 18.6 | > 18.6 | 
83 | CCC(C)C(NC(=O)C(CCC(=O)O)NC(=O)C(CCCCN)NC(=O)C(CO)NC(=O)C(CC(C)C)NC(=O)C(Cc1ccc(O)cc1)NC(=O)C(C)N)C(=O)NC(C)C(=O)NC(CO)C(=O)NC(CC(=O)O)C(=O)O (centres undefined) (H-AYLSKEIASD-OH; configuration not given here) | > 29.5 | > 29.5 | inactive
